Test results: ChEMBL document CHEMBL3301464, “MMV Malaria Box anti-babesial screening”
pIC50: −log10 of the molar value.

Key:
[1] = (§1) MMV: Anti-babesial activity assay. Parasite pRBCs at 1% parasitemia were cultivated in 100 ul with 96-well plates at 2.5% and 5% hematocrits. The parasites were cultivated in triplicate for 4 days without replacement of the medium for each concentration of the compound.; format: functional, Babesia bovis
[2] = as §1; format: functional, Babesia bigemina
[3] = as §1; format: functional, Babesia equi
[4] = as §1; format: functional, Babesia caballi

With `O=C1c2ccccc2-c2nnc(-c3ccc(Br)cc3)cc21` the pIC50 [1] was 6.07, the pIC50 [2] was 6.11 and the pIC50 [3] was 5.00. It also gave a pIC50 [4] of 4.74.

`COCCNCC(O)Cn1c2ccc(Cl)cc2c2cc(Cl)ccc21` (centres undefined) showed a pIC50 [1] of less than 4.60, a pIC50 [2] of 5.73 and a pIC50 [3] of 4.79. It also gave a pIC50 [4] of 5.25.

In the case of `CCOc1ccc(C2N(C)c3ccccc3N2C)cc1`, the pIC50 [1] was 5.26, the pIC50 [2] was 6.07 and the pIC50 [3] was 5.45. The pIC50 [4] was 6.30.

For `COc1ccc(CCn2c(=N)c(C(=O)NCc3cccnc3)cc3c(=O)n4cccc(C)c4nc32)cc1`, the pIC50 [1] was 6.89, the pIC50 [2] was 7.28 and the pIC50 [3] was 6.39. It also gave a pIC50 [4] of 5.37.

`COc1ccc(Nc2nc(N/N=C/c3ccc(O)cc3)nc(Nc3ccc([N+](=O)[O-])cc3)n2)cc1` gave a pIC50 [1] of 7.09, a pIC50 [2] of 7.30 and a pIC50 [3] of 4.80. For the same compound, the pIC50 [4] was 5.29.

In the case of `CCCCCCC(O)(c1ccc(F)cc1)C(CN1CCOCC1)c1ccccc1` (centres undefined), the pIC50 [1] was 5.58, the pIC50 [2] was 5.01 and the pIC50 [3] was 5.00. It also gave a pIC50 [4] of 6.54.

Work on `OC(CNC1CCCCC1)Cn1c2ccc(I)cc2c2cc(I)ccc21` (centres undefined) yielded a pIC50 [1] of 5.89, a pIC50 [2] of 4.78 and a pIC50 [3] of 5.66. For the same compound, the pIC50 [4] was 5.43.

Work on `O=C(Nc1ccc(Br)cc1)Nc1cccc(Cl)c1` yielded a pIC50 [1] of 5.12, a pIC50 [2] of 4.89 and a pIC50 [3] of 5.04. The pIC50 [4] was less than 4.60.

Compound `COc1ccc(-c2cc3c(nn2)-c2ccccc2C3=O)cc1` has a pIC50 [1] of 6.47, a pIC50 [2] of 5.00 and a pIC50 [3] of 5.04. For the same compound, the pIC50 [4] was 4.83.

`O=C1c2ccc3c4c(ccc(c24)C(=O)N1CCCCO)C(=O)N(CCCCO)C3=O` gave a pIC50 [1] of 6.22, a pIC50 [2] of 5.48 and a pIC50 [3] of 6.17. The pIC50 [4] was 6.28.

In the case of `Cc1c(C)n(CC(O)CNC2CCCCC2C)c2ccccc12` (centres undefined), the pIC50 [1] was 7.00, the pIC50 [2] was 5.39 and the pIC50 [3] was 5.32. For the same compound, the pIC50 [4] was 5.60.

For `N=c1c2ccccc2nnn1-c1cccc(C(F)(F)F)c1`, the pIC50 [1] was 4.82, the pIC50 [2] was 4.72 and the pIC50 [3] was 5.04. For the same compound, the pIC50 [4] was 4.74.

With `Cc1ccnc(NC(c2cccc(OCc3ccccc3)c2)c2ccc3cccnc3c2O)c1` (centres undefined) the pIC50 [1] was 5.72, the pIC50 [2] was 4.86 and the pIC50 [3] was 5.85. It also gave a pIC50 [4] of 5.38.

`COc1ccc(C2N(C)c3ccccc3N2C)cc1` gave a pIC50 [1] of 5.32, a pIC50 [2] of 5.67 and a pIC50 [3] of 5.10. It also gave a pIC50 [4] of 5.34.

`O=C(CSc1ccc2nnc(-c3cccc(F)c3)n2n1)Nc1ccc2c(c1)OCO2` showed a pIC50 [1] of 4.92, a pIC50 [2] of 4.70 and a pIC50 [3] of 4.89. For the same compound, the pIC50 [4] was 4.74.

`CCN1CCN(c2cc(C)c3cc(NC(=O)c4ccc(OC)c(OC)c4)ccc3n2)CC1` showed a pIC50 [1] of 5.17, a pIC50 [2] of 5.10 and a pIC50 [3] of 6.48. The pIC50 [4] was 5.23.

In the case of `COc1ccc(Br)cc1C1Nc2ccc3ccccc3c2C2=C1C(=O)CC(c1ccccc1)C2` (centres undefined), the pIC50 [1] was less than 4.60, the pIC50 [2] was 4.76 and the pIC50 [3] was less than 4.60. It also gave a pIC50 [4] of 4.88.

With `O=C(NCc1ccco1)C1CCN(S(=O)(=O)c2ccc(Br)cc2)CC1` the pIC50 [1] was 4.77, the pIC50 [2] was less than 4.60 and the pIC50 [3] was 4.84. It also gave a pIC50 [4] of less than 4.60.

Compound `COc1ccc(Nc2cc(C)nc(NCc3ccccc3)n2)cc1` has a pIC50 [1] of 7.27, a pIC50 [2] of 7.17 and a pIC50 [3] of 4.82. The pIC50 [4] was 4.84.

Work on `COc1ccccc1N1CCN(C(CNS(=O)(=O)c2ccc(Cl)cc2)c2cccnc2)CC1` (centres undefined) yielded a pIC50 [1] of 6.17, a pIC50 [2] of 5.67 and a pIC50 [3] of 4.76. It also gave a pIC50 [4] of 4.87.

With `CSC1=NC(=Nc2c(C)cccc2C)C2(CCC(C(C)(C)C)CC2)N1c1ccc(Cl)cc1` (centres undefined) the pIC50 [1] was 4.74, the pIC50 [2] was 4.77 and the pIC50 [3] was 4.94. It also gave a pIC50 [4] of 4.82.

Compound `COc1cc2c3cc1Oc1c(OC)c(OC)cc4c1C(Cc1ccc(O)c(c1)Oc1ccc(cc1)CC3N(C)CC2)N(C)CC4` (centres undefined) has a pIC50 [1] of 7.17, a pIC50 [2] of 5.00 and a pIC50 [3] of 6.59. For the same compound, the pIC50 [4] was 5.41.

In the case of `Clc1ccc2[nH]c3c(NCCCN4CCOCC4)ncnc3c2c1`, the pIC50 [1] was 5.11, the pIC50 [2] was 5.96 and the pIC50 [3] was 5.13. It also gave a pIC50 [4] of 6.00.

For `CCOc1cc2c(cc1OCC)C(c1cc(Cl)ccc1O)NCC2` (centres undefined), the pIC50 [1] was 5.97, the pIC50 [2] was 5.00 and the pIC50 [3] was 5.85. For the same compound, the pIC50 [4] was 6.48.

`CCn1c(SCC(=O)Nc2cc(C(F)(F)F)ccc2Cl)nc2ccccc2c1=O` gave a pIC50 [1] of 4.60, a pIC50 [2] of 5.48 and a pIC50 [3] of 4.80. For the same compound, the pIC50 [4] was 4.83.

Work on `CN(C)c1ccc(-c2nc3cc(N)ccc3[nH]2)cc1` yielded a pIC50 [1] of 7.08, a pIC50 [2] of 5.98 and a pIC50 [3] of 5.44. It also gave a pIC50 [4] of 5.12.

`OC(CNC1CCCC1)Cn1c2ccccc2c2ccccc21` (centres undefined) showed a pIC50 [1] of 6.00, a pIC50 [2] of 4.76 and a pIC50 [3] of 5.41. The pIC50 [4] was 5.45.

For `CCOc1c(Cl)cc(CNC(C)C(O)c2ccccc2)cc1OC` (centres undefined), the pIC50 [1] was 5.72, the pIC50 [2] was 5.14 and the pIC50 [3] was 5.17. The pIC50 [4] was 4.92.

With `COc1cc(-c2nc(-c3ccccc3)c(-c3ccccc3)[nH]2)cc(OC)c1O` the pIC50 [1] was 5.10, the pIC50 [2] was 5.48 and the pIC50 [3] was 4.92. For the same compound, the pIC50 [4] was 4.66.

For `O=C(NC1CCCCC1)C(c1cccs1)N(CCc1ccccc1)C(=O)c1ccco1` (centres undefined), the pIC50 [1] was 5.06, the pIC50 [2] was 4.97 and the pIC50 [3] was 4.85. For the same compound, the pIC50 [4] was 4.97.

`Oc1ccccc1CNCC12CC3CC(CC(C3)C1)C2` showed a pIC50 [1] of 4.83, a pIC50 [2] of 4.80 and a pIC50 [3] of 4.88. The pIC50 [4] was 5.00.
